The text below walks through data of patent US10768161B2, “Method for ecological risk assessment of heavy metal in river basin sediment based on toxicity effect” (CHINESE RESEARCH ACADEMY OF ENV[…], priority 2015, dated 2020).

Data set [1] relates to aquatic organisms. In words: Integration and normalization of release coefficient and HC5 to toxicity coefficient S^i. To be noted: for Toxicity coefficient: Table 4; for Square root (toxicity coefficient S^i): final step of integration and normalization, Table 3. The source says:
(7) repeating steps (4) to (6) n times to obtain the release coefficient cs^i and toxic concentration HC5^i of each heavy metal determined in step (2), and integrating and normalizing the release coefficient cs^i and toxic concentration HC5^i of each heavy metal to obtain the toxicity coefficient S^i of the i^th heavy metal;
Preferably, the integrating and normalizing regulation described in step (7) comprises the following calculation steps:
a. calculating the reciprocal of the concentration HC5^i of the i^th heavy metal, and keeping three significant figures for each value obtained;
b. dividing each reciprocal number obtained in step a by the smallest one of them, and keeping three significant figures for each value obtained;
c. multiplying each value obtained in step b by the release coefficient cs^i of the corresponding i^th heavy metal;
d. dividing each value obtained in step c by the smallest one of them, and keeping three significant figures for each value obtained; […]

Data set [2] is described as follows: Ecological risk assessment of heavy metals in a lake basin sediment. To be noted: for Toxicity response coefficient: Tr^i=S^i*(5/BPI)^x, lake BPI=6.7; for Pollution risk index: ecological risk index Er^i=Tr^i*cf^i for the lake. The source says: (8) calculating the toxicity response coefficient Tr^i of the i^th heavy metal according to the formula Tr^i=S^i*(5/BPI)^X one by one, where BPI is the biological yield index of the water body evaluated and the value of x is 1, ½ or 0;
(9) calculating the ecological risk index Er^i of the i^th heavy metal according to the formula Er^i=Tr^i*cf^i one by one, and the resulting Er^i is used to evaluate the ecological risk of a single metal to the assessed river basin: when Er^i<30, the ecological hazard of the i^th heavy metal to the assessed river basin is slight, when 30≤Er^i<60, the ecological hazard of the i^th heavy metal to the assessed river basin is medium, when 60≤Er^i<120, the ecological hazard of the i^th heavy metal to the assessed river basin is strong, when 120≤Er^i<240, the ecological hazard of the i^th heavy metal to the assessed river basin is very strong, when Er^i>240, the ecological hazard of the i^th heavy metal to the assessed river basin is extremely strong.
Preferably, the ecological assessment method described above also includes the step (10), that is using the formula RI=Σi=1^N Er^i to calculate the total ecological risk comprehensive index RI caused by multiple heavy metal pollutants in the water body and then using RI to evaluate the ecological risk of the assessed river basin: when RI<150, there is a slight ecological hazard in the river basin, when 150≤RI<300, there is a medium ecological hazard in the river basin, when 300≤RI<600, there is a very strong ecological hazard in the river basin, when RI≥600, there is an extremely strong ecological hazard in the river basin.
Preferably, the BPI described in step (8) is the bioproduction index, which is determined by the burning amount and nitrogen content of the sediment samples. BPI indicates the sensitivity of water to heavy metal pollutions, namely the effects of Eh and pH of pore water in sediments, and pH, salinity, and alkalinity of overlying water on the various heavy metals in the water.
Preferably, the value of x described in step (8) is determined by the type of heavy metals that is measured. The toxicity response coefficient of Hg decreases with the increase of BPI, and the relationship between them is linear. Therefore, when the measured metal is Hg, the value of x is 1. The toxicity response coefficient of As is independent of BPI. Therefore, when the measured metal is As, the value of x is 0. The toxicity response coefficient of other heavy metals also decreases with the increase of BPI, but it is not linear. Therefore, when the measured metal is not Hg or As, the value of x is ½.

For data set [3] the following is noted: cited from earlier work; for Release coefficient: Table 3.
The subject of data set [4] is aquatic organisms. The data set can be described thus: Species Sensitivity Distributions (SSD) curve fitting, toxic concentration HC5. Further details: Toxic concentration: unit not given here. The conditions noted are these: for Toxic concentration: HC5^i, protects 95% of aquatic organisms, Table 3. The source says: (5) collecting the chronic toxicity data of the i^th heavy metal on aquatic species selected in step (1), performing curve fitting on the collected data, and selecting the curve regression equation with the highest goodness of fit, so as to obtain the best equation for the sensitivity of the i^th heavy metal;
(6) drawing a fitting curve (Species Sensitivity Distributions, SSD) according to the best fitting equation obtained in step (5), and setting the y value of this equation, that is, the cumulative probability to 0.05, and then calculating the corresponding x value, which is the toxic concentration HC5^i of the i^th heavy metal that protects 95% of aquatic organisms;
Preferably, plotting the collected concentration values of toxicity data for different species of organisms against the quantiles arranged in concentration, and selecting the curve equation to fit based on the resulting data point distribution shape. The fitting should adopt several different functions and select the optimal regression curve, so as to avoid the systematic errors introduced by improper selection of functions. When the distribution of the toxicity data points is a common S-type, the fitting curves are preferred to use the log-Normal distribution function, the log-logistic distribution function, the log-triangular distribution function, or a combination thereof. When the distribution of the toxicity data points is different from the common S-type distribution, other curves or non-parametric methods can be used to fit the data points, for example, using the Burr type III distribution function as the regression curve equation of the toxicity data of heavy metals.
Preferably, the goodness of fit described in step (5) is determined by the toxicity data points and the judgment coefficient R^2 of the resulting curve regression equation: when the judgment coefficient R^2 of the curve regression equation gets closer to 1, the goodness of the curve regression equation for the data is higher.
Preferably, the concentration HC5^i of the i^th heavy metal that protects 95% of aquatic organisms described in step (6) is the toxicity data corresponding to the cumulative probability of 5% aquatic organisms on the fitted curve.

Another data set deals with Bellamya aeruginosa. The conditions noted are these: chronic toxicity; Zoobenthos, Bellamya aeruginose; cited from earlier work.
The next data set has as its system Coilia nasus taihuensis. The conditions noted are these: chronic toxicity, Fishes; cited from earlier work.
In another data set the test system is Chironomus. The conditions noted are these: chronic toxicity, Zoobenthos; cited from earlier work.
The subject of another data set is Carp. The conditions noted are these: chronic toxicity, Fishes; cited from earlier work.
A further data set has as its system Brachionus calyciflorus. To be noted: chronic toxicity, Zooplankton; cited from earlier work.
The test system of another data set is Wild lotus. To be noted: chronic toxicity, Hydrophyte; cited from earlier work.
The next data set has as its system Corbicula fluminea. The conditions noted are these: chronic toxicity, Zoobenthos; cited from earlier work.
In a further data set the test system is Azolla pinnata. The conditions noted are these: chronic toxicity, Hydrophyte; cited from earlier work.
A further data set concerns Cryptophyta. To be noted: chronic toxicity, Phytoplankton; cited from earlier work.
Another data set deals with Duckweed. To be noted: chronic toxicity, Hydrophyte; cited from earlier work.
Another data set deals with Protosalanx hyalocranius. The conditions noted are these: chronic toxicity, Fishes; cited from earlier work.
The next data set relates to Arenaceous sanding. The conditions noted are these: chronic toxicity, Zooplankton; cited from earlier work.
A further data set relates to Scenedesmus. To be noted: chronic toxicity, Phytoplankton; cited from earlier work.
The subject of the next data set is Bosmina. To be noted: chronic toxicity, Zooplankton; cited from earlier work.
The next data set deals with Pyrrophyta. To be noted: chronic toxicity, Phytoplankton; cited from earlier work.

As to `[As]` [As], in the data set on aquatic organisms [1], the Toxicity coefficient is on record as 1.50 and the “Square root (toxicity coefficient S^i)” value turned out to be 1.5. In data set [2], this compound had a Toxicity response coefficient of 1.50 and a Pollution risk index of 1.05. Moreover, the Release coefficient in data set [3] is listed as 27. The Toxic concentration in the data set on aquatic organisms [4] came out at 14.9.

Consider `[Cd]` [Cd], for which, in the data set on aquatic organisms [1], the Toxicity coefficient stood at 28.00 and the “Square root (toxicity coefficient S^i)” value stood at 28. Moreover, in data set [2], the Toxicity response coefficient is 24.19 and the Pollution risk index was found to be 18.38. The Release coefficient in data set [3] was 200. Further, in the data set with aquatic organisms [4], the Toxic concentration stood at 0.3.

In the case of `[Cr]` [Cr], the “Toxicity data (NOEC)” value with Bellamya aeruginosa is 250 µg/kg; in the data set on Coilia nasus taihuensis, 6941 µg/kg; in the data set on Chironomus, 20 µg/kg; in the data set on Carp it was 23516 µg/kg; in the data set with Brachionus calyciflorus, 1789 µg/kg; in the data set on Wild lotus, 123 µg/kg. The “Toxicity data (NOEC)” value with Corbicula fluminea is 1.13 µg/kg; in the data set on Azolla pinnata, 625 µg/kg; in the data set on Cryptophyta, 317 µg/kg; with Duckweed, 1000 µg/kg; in the data set with Protosalanx hyalocranius, 4405 µg/kg; in the data set with Arenaceous sanding, 1500 µg/kg. The figures for the “Toxicity data (NOEC)” value with Scenedesmus, in the data set on Bosmina and in the data set with Pyrrophyta were 8 µg/kg, 46.5 µg/kg and 671 µg/kg, respectively. Further, in the data set on aquatic organisms [1], the Toxicity coefficient turned out to be 1.00. Besides, the “Square root (toxicity coefficient S^i)” value in the data set on aquatic organisms [1] is reported as 1. In data set [2], this compound returned a Toxicity response coefficient of 0.86. The Pollution risk index in [2] turned out to be 0.68. The Release coefficient in data set [3] was 2. Further, the “release coefficient cs^1” value in data set [3] (from the literature) is recorded as 2×10^−3. The Toxic concentration in the data set with aquatic organisms [4] is given as 2.42. Besides, in the data set with aquatic organisms [4] (cumulative probability 0.05 on log-logistic SSD fit of chronic toxicity data), the “toxic concentration HC5^i that protects 95% of aquatic organisms” value is 2.42 µg/L.

As to `[Cu]` [Cu], in the data set with aquatic organisms [1], the Toxicity coefficient came to 17.00 and the “Square root (toxicity coefficient S^i)” value was 17. Moreover, in [2], the Toxicity response coefficient was 14.69 and the Pollution risk index stood at 26.73. In addition, the Release coefficient in [3] is listed as 200. Besides, the Toxic concentration with aquatic organisms [4] turned out to be 0.89.

As to `[Hg]` [Hg], in the data set on aquatic organisms [1], the Toxicity coefficient was 27.00 and the “Square root (toxicity coefficient S^i)” value is given as 27. Further, in data set [2], the Toxicity response coefficient turned out to be 20.15 and the Pollution risk index worked out at 54.40. The “ecological hazard to the lake” value in data set [2] (class by Er^i of single metal) was “medium (when 30≤Er^i<60, the ecological hazard of the i^th heavy metal to the assessed river basin is medium)”. Besides, the Release coefficient in data set [3] is 320. The Toxic concentration in the data set with aquatic organisms [4] was 0.53.

For the compound `[Ni]` [Ni], in the data set with aquatic organisms [1], the Toxicity coefficient is on record as 5.50 and the “Square root (toxicity coefficient S^i)” value is reported as 5.5. In data set [2], this compound returned a Toxicity response coefficient of 4.75 and a Pollution risk index of 3.85. In addition, the Release coefficient in [3] is 147. The Toxic concentration in the data set on aquatic organisms [4] is recorded as 6.03.

Regarding `[Pb]` [Pb], the Release coefficient in data set [3] is reported as 71.

As for `[Zn]` [Zn], in the data set with aquatic organisms [1], the Toxicity coefficient was determined as 2.50 and the “Square root (toxicity coefficient S^i)” value is on record as 2.5. In data set [2], this compound registered a Toxicity response coefficient of 2.16 and a Pollution risk index of 2.66. Further, in data set [3], the Release coefficient is reported as 57. Besides, the Toxic concentration in the data set on aquatic organisms [4] was determined as 10.83.
